The nature of data set [1]: In vitro release/permeation through porcine buccal mucosa in modified Ussing chamber (rosuvastatin, oxycodone, atorvastatin). As to conditions: not yet tested.
For data set [2] the following is noted: cited from earlier work.
Data set [3] in a line: SAXS of mixtures of GMO and excipient/active ingredient immersed in PBS (liquid crystal phase and lattice size). It counts as physicochemical. Set-up: lamella phase lattice size: unit not given here. As to conditions: for Threshold (minimum amount of ingredient required to increase the water channel size): % w/w of ingredient in GMO; for Phase structure: PBS buffer pH 6.8, ~22° C.; for Concentration at which V2(Pn3m) lattice size increased / Concentration of transformation/transition in liquid crystalline structure: concentration in GMO; for Concentration of transformation/transition in liquid crystalline structure: change to structure with larger water channels (e.g. Im3m). How it is done:
The samples were then mixed via a roller mixer at ˜10 RPM at 40° C. for at least 3 days.
One week prior to SAXS experiment, 100 mg samples were loaded into a transparent polystyrene 96 well plate (Nunc™) and immersed in 200 μL of PBS buffer (pH 6.8). The samples were stored away from light at ambient temperature, to allow the samples to reach equilibrium.
The SAXS/WAXS beamline at Australian Synchrotron, Melbourne, Australia was used to determine the liquid crystalline nanostructure in the samples.
A custom-designed plate holder was used to mount the samples plate directly onto the SAXS/WAXS beamline. Scans were automated using a pre-loaded set of position variables based on the well positions within the plate, the exposure time was 5 sec.
Data were obtained at ambient temperature (˜22° C.). […] The 2-D diffraction images were recorded on a Pilatus 1M detector and radially integrated using the in-house software “ScatterBrain”.

[4] abbreviates: Concentration in GMO 1%, first value of the cell (first phase listed).
Setting [5] is: Concentration in GMO 5%, first value of the cell (first phase listed).
Setting [6] is: Concentration in GMO 10%, first value of the cell (first phase listed).
Setting [7] is: Concentration in GMO 15%, first value of the cell (first phase listed).
The mark [8] stands for this setting: Concentration in GMO 20%, first value of the cell (first phase listed).
[9] abbreviates: Concentration in GMO 10%, second value of the cell (second phase).
Setting [10] is: Concentration in GMO 15%, second value of the cell (second phase).

Regarding `CNCC(O)c1ccc(O)c(O)c1` (stereo not drawn) [Adrenaline], the “passage through the porcine oral mucosa in a Ussing chamber” value in data set [1] is reported as “expected to pass through the porcine oral mucosa”. In data set [2], the logP was −0.5 to −1.4.
`CC(C)c1c(C(=O)Nc2ccccc2)c(-c2ccccc2)c(-c2ccc(F)cc2)n1CC[C@@H](O)C[C@@H](O)CC(=O)O` [Atorvastatin]: in data set [3], the “Threshold (minimum amount of ingredient required to increase the water channel size)” value was 8-10%. The Phase structure result in data set [3] (Concentration in GMO 1%), in data set [3] (Concentration in GMO 5%), in data set [3] (Concentration in GMO 10%), in data set [3] (Concentration in GMO 15%), in data set [3] (Concentration in GMO 20%) and in data set [3] (Concentration in GMO 25%) was “V2(Pn3m)” each time. For the same molecule, the Phase structure result in data set [3] (Concentration in GMO 35%) is “V2(Pn3m)”. In addition, the Lattice size amounted to 93.1 Å in data set [3] (setting [4]); 99.2 Å in data set [3] (setting [5]); 105 Å in data set [3] (setting [6]); 101 Å in data set [3] (setting [7]); 103 Å in data set [3] (setting [8]); 102 Å in data set [3] (Concentration in GMO 25%, first value of the cell (first phase listed)). The Lattice size in data set [3] (Concentration in GMO 35%, first value of the cell (first phase listed)) was determined as 105 Å. The “Concentration at which V2(Pn3m) lattice size increased” value in data set [3] was 10-35%.
Turning to `CC(C)c1nc(N(C)S(C)(=O)=O)nc(-c2ccc(F)cc2)c1/C=C/[C@@H](O)C[C@@H](O)CC(=O)O` [Rosuvastatin], in data set [3], the “Threshold (minimum amount of ingredient required to increase the water channel size)” value was “A threshold of 3-5% or about 5%. Transformation in structure”. The Phase structure entry was “V2(Pn3m)” in data set [3] (Concentration in GMO 1%), “V2(Pn3m)” in data set [3] (Concentration in GMO 5%), “V2(Pn3m)” in data set [3] (Concentration in GMO 10%) and “V2(Pn3m) + V2(Im3m)” in data set [3] (Concentration in GMO 15%). The Lattice size in data set [3] (setting [4]) amounted to 84.2 Å; in data set [3] (setting [5]), 109 Å; in data set [3] (setting [6]), 109 Å; in data set [3] (setting [9]), 131 Å; in data set [3] (setting [7]) it was 122 Å; in data set [3] (setting [10]), 148 Å. For the same molecule, the “Concentration at which V2(Pn3m) lattice size increased” value in data set [3] was “Rosuvastatin - V2(Pn3m) lattice size increased at 5-15%”. For the same molecule, the logP in data set [2] is 1.92.
On to `CCCCCCCCCCCCOS(=O)(=O)[O-].[Na+]` [SLS, sodium lauryl sulphate], for which, in data set [3], the “Threshold (minimum amount of ingredient required to increase the water channel size)” value was 3-5% or about 5%. SLS was also tested in SBT137 and shown to increase. Also, the Phase structure result in data set [3] (Concentration in GMO 1%), in data set [3] (Concentration in GMO 5%) and in data set [3] (Concentration in GMO 10%) was “V2(Pn3m)” throughout. Also, the figures for the Lattice size in data set [3] (setting [4]), in data set [3] (setting [5]) and in data set [3] (setting [6]) were 95.4 Å, 116 Å and 133 Å, respectively. The “Concentration of transformation/transition in liquid crystalline structure” value in data set [3] is on record as “with large water channels. Transition at about 50%”.
As for `O=C1NS(=O)(=O)c2ccccc21.[Na]` [Saccharin sodium], the “Threshold (minimum amount of ingredient required to increase the water channel size)” value in data set [3] is on record as 3-5%. The Phase structure entry in data set [3] (Concentration in GMO 1%) is recorded as “V2(Pn3m)”; in data set [3] (Concentration in GMO 5%) it was “V2(Pn3m)”; in data set [3] (Concentration in GMO 10%), “V2(Pn3m) + others”. Besides, the Lattice size in data set [3] (setting [4]) came to 95.4 Å; in data set [3] (setting [5]) it was 107 Å; in data set [3] (setting [6]), 120 Å. Further, the “Concentration at which V2(Pn3m) lattice size increased” value in data set [3] is reported as 5-10%.
In the case of `O=S(=O)([O-])NC1CCCCC1.[Na+]` [Sodium cyclamate], the “Threshold (minimum amount of ingredient required to increase the water channel size)” value in data set [3] is listed as 3-5%. For the same molecule, the Phase structure entry in data set [3] (Concentration in GMO 1%) is “V2(Pn3m)”; in data set [3] (Concentration in GMO 5%), “V2(Pn3m)”; in data set [3] (Concentration in GMO 10%), “V2(Pn3m) + other”. The results for the Lattice size in data set [3] (setting [4]), in data set [3] (setting [5]) and in data set [3] (setting [6]) were 93.1 Å, 103 Å and 113 Å, respectively. Also, in data set [3], the “Concentration at which V2(Pn3m) lattice size increased” value is reported as 5-10%.
Turning to `OC[C@@H](O)[C@@H](O)[C@H](O)[C@@H](O)CO` [Sorbitol], in data set [3] (ingredient 1 to 50% in GMO), the V2(Pn3m) lattice size was 83 to 92 Å. Moreover, the “V2(Ia3d) lattice size” value in data set [3] (ingredient at 1% in GMO, blended with V2(Pn3m)) was “about 138 nm”. The “impact on the GMO cubic structure formed” value in data set [3] (tablet excipient mixed with GMO) is “minimal impact”.
`CCCCCCCC/C=C\CCCCCCCC(=O)OCCOCC(OCCO)C1OCC(OCCO)C1OCCO` (stereo not drawn) [Tween 80]: in data set [3], the “Threshold (minimum amount of ingredient required to increase the water channel size)” value is recorded as “size from an ODT. A threshold of 8-10% or about 10%”. The Phase structure result in data set [3] (Concentration in GMO 1%) is “V2(Pn3m)”; in data set [3] (Concentration in GMO 5%) it was “V2(Pn3m)”; in data set [3] (Concentration in GMO 10%), “V2(Pn3m)”; in data set [3] (Concentration in GMO 20%), “V2(Pn3m) + V2(Im3m)”. Further, the Lattice size in data set [3] (setting [4]) was found to be 91.9 Å; in data set [3] (setting [5]) it was 97.9 Å; in data set [3] (setting [6]) it was 106 Å; in data set [3] (setting [9]), 139 Å; in data set [3] (setting [8]) it was 138 Å; in data set [3] (Concentration in GMO 20%, second value of the cell (second phase)), 172 Å. For the same molecule, in data set [3], the “Concentration at which V2(Pn3m) lattice size increased” value is recorded as “Tween 80 - V2(Pn3m) lattice size increased at 10-20%”. Also, the “Concentration of transformation/transition in liquid crystalline structure” value in data set [3] is reported as “Transformation in structure by about 20%”.
As to Ibuprofen lysine, the “Threshold (minimum amount of ingredient required to increase the water channel size)” value in data set [3] is reported as 3-5%. The Phase structure entry is on record as “V2(Pn3m)” in data set [3] (Concentration in GMO 1%), “V2(Pn3m)” in data set [3] (Concentration in GMO 5%), “V2(Pn3m) + V2(Ia3d)” in data set [3] (Concentration in GMO 10%) and “Lα + V2(Ia3d)” in data set [3] (Concentration in GMO 15%). In addition, the Lattice size stood at 88.9 Å in data set [3] (setting [4]); 105 Å in data set [3] (setting [5]); 131 Å in data set [3] (setting [6]); 189 Å in data set [3] (setting [9]); 80.7 Å in data set [3] (setting [7]); 198 Å in data set [3] (setting [10]). Besides, in data set [3], the “Concentration at which V2(Pn3m) lattice size increased” value was 5-10%. The “Concentration of transformation/transition in liquid crystalline structure” value in data set [3] is given as “Transformation in structure by about 10%”.
In the case of Magnesium stearate, the V2(Pn3m) lattice size in data set [3] (ingredient 1-20% in GMO) was in the range of 93 to 95 Å. The “lamella phase lattice size” value in data set [3] (ingredient at 5-30% in GMO) turned out to be 50. The H2 lattice size in data set [3] (ingredient at 30% in GMO) was 62 nm.

The values above are taken from patent publication US20210369623A1, “COMPOSITION THAT FORMS LIQUID CRYSTALLINE PARTICLES” (Zeenar Enterprises Pty Ltd, priority 2018, published 2021).
